Entries after “also recorded” stand apart in the source; their conditions may differ. Like-named read-outs stand apart in the source and are kept apart here. Where only a bound is given, the exact number is not on record here.

This is an account of results in paper PMC11830572, “5‐hydroxymethylcytosine features of portal venous blood predict metachronous liver metastases of colorectal cancer and reveal phosphodiesterase 4 as a therapeutic target” (Clinical and Translational Medicine, 2025).

In data set [1] the test system is MC38 cells. Description: Transwell migration assay, MC38. Type of data set: cell-based, murine. How it is done: To access cell migration, 1.0 × 10^5 cells were seeded into the 8‐µm‐pore upper chambers in serum‐free RPMI1640 and incubated in RPMI1640 with 10% FBS of the lower chamber of 12‐well plates (Corning Star). After normal culture for 24 h, cells were permeabilised with 100% methanol and then stained with .1% crystal violet.

Data set [2] has as its system MC38 cells. Description: Cell viability assay (CCK8). Type of data set: cell-based, murine. How it is done:
A total of 2000–5000 cells were seeded in 96‐well plates for an overnight culture. The medium was then replaced with fresh medium supplemented with varying concentrations of drugs. […]

Data set [3] concerns MC38 cells. Description: Wound healing scratch migration assay. Type of data set: cell-based, murine. Conditions: 24 h and 48 h. How it is done: For migration assays (wound healing assays), cells were seeded in 6‐well plates and grown until confluence. Cells were scraped in each well, the medium was replaced with medium with 2% FBS to block cell proliferation. After 24 h or 48 h, the photographs of each well were obtained.

In data set [4] the test system is HIF-1α, CCN2, p-AKT and p-ERK in MC38 cells. Description: Western blot / immunofluorescence / mRNA of HIF-1α, CCN2, p-AKT, p-ERK in MC38 cells. Type of data set: cell-based, murine. Conditions: for mRNA and protein levels of CCN2: HIF-1α inhibitor treatment. The method, then: Western blot was performed using the following antibodies: anti‐phospho‐ERK (CST, #4370), anti‐ERK (CST, #4695), anti‐phospho‐AKT (CST, #4060), anti‐AKT (CST, #9272), anti‐beta‐tubulin (CST, #86298), anti‐PDE4D (Abcam, ab171750) and anti‐CCN2 (Abcam, ab6992). […] The blots were blocked with 5% non‐fat milk and incubated overnight at 4°C with the primary antibody. Afterward, the blots were incubated for 1 h with the secondary antibody and subsequent imaging was carried out by BIO‐RAD Chemidoc MP imaging system. Relative protein levels were corrected for beta‐tubulin or beta‐actin.
(In western blotting, separated proteins are transferred to a membrane and probed.)

The subject of data set [5] is MC38 cells. Description: RNA sequencing of treated MC38 cells. Type of data set: cell-based, murine. The method, then:
RNA integrity was assessed using the RNA Nano 6000 Assay Kit on the Bioanalyzer 2100 system (Agilent Technologies, CA, USA). Total RNA was used as input for RNA sample preparation. Briefly, mRNA was purified from total RNA using poly‐T oligo‐attached magnetic beads. Fragmentation was performed using divalent cations at elevated temperature in First Strand Synthesis Reaction Buffer (5X). First‐strand cDNA was synthesised using a random hexamer primer and M‐MuLV Reverse Transcriptase (RNase H‐). Second‐strand cDNA synthesis was then carried out using DNA Polymerase I and RNase H. The remaining overhangs were converted to blunt ends via exonuclease/polymerase activities. After adenylation of the 3′ ends of the DNA fragments, adaptors with a hairpin loop structure were ligated to prepare for hybridisation. To select cDNA fragments in the preferred size range of 370–420 bp, the library fragments were purified using the AMPure XP system (Beckman Coulter, Beverly, USA). PCR amplification was performed using Phusion High‐Fidelity DNA polymerase, universal PCR primers, and an index (X) primer. The PCR products were then purified again using the AMPure XP system, and the library quality was assessed on the Agilent Bioanalyzer 2100 system. […] After cluster generation, the library preparations were sequenced on the Illumina NovaSeq platform, generating 150 bp paired‐end reads.

The next data set relates to MC38 liver metastases. Description: Liver metastasis model, intrasplenic injection of MC38-Luc cells. Type of data set: in vivo, mice. Conditions: for bioluminescence of mice in the liver: day 18. The method, then:
(§1) A murine colon cancer cell line (MC38) stably transfected with the firefly luciferase (Luc) gene (Addgene plasmid #17477) was generated. To establish a model of liver metastases mice were anaesthetised with ketamine. Then the spleens were exposed to allow direct intrasplenic injections of 5 × 10^5 Luc‐labelled MC38 (MC38‐Luci) cells in 50 µL 1 mM EDTA in PBS. Mice were sacrificed 18 days after injection of the tumour cells, then spleen and liver were analysed immediately. For ex vivo imaging, female mice were administered by intraperitoneal injection with d‐luciferin (150 mg/kg; Perkin Elmer). Ten minutes later, mice were sacrificed, the livers were collected and […] the ex vivo IVIS Lumina III system (Perkin Elmer). Collected images were analysed using Living Image 4.3.1 software (Perkin Elmer): ROIs were drawn around each liver and radiant efficiency calculated.

The nature of data set [6]: Emetic assay on beagle dogs. Type of data set: in vivo. The method, then:
All animal care and experimental protocols were conducted in accordance with the Guide for the Care and Use of Laboratory Animals (National Institutes of Health Publication, revised 1996, no. 86‐23, Bethesda, MD) and were approved by the Institutional Animal Research Ethics Committee of Sun Yat‐Sen University. (IACUC numbers: […]‐2021‐000130). […] Animals are watched continuously for 180 min for the behaviour of retching, excessive salivation, and vomiting.

In the next data set the target is PDE4 (Homo sapiens, UniProt Q08499). Description: In vitro enzymatic activity assay: inhibitory activities of 2-arylbenzofurans towards PDE4 (3H-cAMP substrate). Type of data set: biochemical. Conditions: for inhibition at 0.1 µM: read-out: PDE4 inhibition 100 nM.
Sequence of PDE4 (Q08499 388-715): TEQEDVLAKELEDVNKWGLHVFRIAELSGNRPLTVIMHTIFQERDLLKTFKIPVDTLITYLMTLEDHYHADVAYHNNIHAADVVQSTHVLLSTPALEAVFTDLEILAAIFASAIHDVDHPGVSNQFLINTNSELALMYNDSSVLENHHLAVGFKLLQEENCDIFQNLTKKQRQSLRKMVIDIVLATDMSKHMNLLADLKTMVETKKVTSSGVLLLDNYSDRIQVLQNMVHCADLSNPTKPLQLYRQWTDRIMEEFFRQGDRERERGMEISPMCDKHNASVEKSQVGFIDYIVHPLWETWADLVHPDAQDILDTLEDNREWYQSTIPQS
The target of the next data set is PDE5A1 (535-860) (Homo sapiens, UniProt O76074). Description: In vitro enzymatic activity assay, PDE selectivity panel: PDE5A1. Type of data set: biochemical.
The target of a further data set is PDE7A1 (130-482) (Homo sapiens, UniProt Q13946). Description: In vitro enzymatic activity assay, PDE selectivity panel: PDE7A1. Type of data set: biochemical.
Sequence of PDE7A1 (130-482) (Q13946 130-482): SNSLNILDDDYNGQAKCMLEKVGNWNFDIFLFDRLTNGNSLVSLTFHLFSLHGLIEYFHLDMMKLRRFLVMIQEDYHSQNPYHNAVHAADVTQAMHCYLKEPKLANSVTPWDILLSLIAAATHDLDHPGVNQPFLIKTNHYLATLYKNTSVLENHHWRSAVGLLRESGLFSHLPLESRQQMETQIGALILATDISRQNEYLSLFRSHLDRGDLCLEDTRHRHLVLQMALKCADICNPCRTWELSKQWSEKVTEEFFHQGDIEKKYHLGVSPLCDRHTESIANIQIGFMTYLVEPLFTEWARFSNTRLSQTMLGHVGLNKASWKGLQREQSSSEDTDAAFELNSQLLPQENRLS
Data set [7] in a line: Safety in liver metastasis model mice (body weight curve, H&E of heart, lung, kidney). Type of data set: in vivo. The method, then: as §1
The next data set has as its target PDE1B (10-487) (Homo sapiens, UniProt Q01064). Description: biochemical.
The target in another data set is PDE3A (679-1087) (Homo sapiens, UniProt Q14432). Description: biochemical.
Sequence of PDE3A (679-1087) (Q14432 679-1087): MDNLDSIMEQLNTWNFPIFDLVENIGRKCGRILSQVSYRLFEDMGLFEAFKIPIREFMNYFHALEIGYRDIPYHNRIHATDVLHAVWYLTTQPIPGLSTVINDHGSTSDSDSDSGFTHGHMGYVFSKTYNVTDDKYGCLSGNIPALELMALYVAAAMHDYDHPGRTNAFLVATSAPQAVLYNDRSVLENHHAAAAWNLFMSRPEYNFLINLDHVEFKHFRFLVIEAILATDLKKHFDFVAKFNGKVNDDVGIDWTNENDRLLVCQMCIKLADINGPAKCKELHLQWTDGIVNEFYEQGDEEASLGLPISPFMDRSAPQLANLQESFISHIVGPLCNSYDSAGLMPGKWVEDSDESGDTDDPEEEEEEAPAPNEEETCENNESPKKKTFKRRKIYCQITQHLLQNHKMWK
A short description of data set [8]: 2-week repeated administration in rats: overall long-term safety.
A further data set concerns PDE4B2. Details: method as in PMID 22483586. To be noted: cited from earlier work.
The subject of the next data set is PDE4D2. Details: method as in PMID 22483586. To be noted: cited from earlier work.
Where [9] appears, read: mice, MC38-Luc intrasplenic, two weeks of treatment.

Sequence of PDE1B (10-487) (Q01064 10-487): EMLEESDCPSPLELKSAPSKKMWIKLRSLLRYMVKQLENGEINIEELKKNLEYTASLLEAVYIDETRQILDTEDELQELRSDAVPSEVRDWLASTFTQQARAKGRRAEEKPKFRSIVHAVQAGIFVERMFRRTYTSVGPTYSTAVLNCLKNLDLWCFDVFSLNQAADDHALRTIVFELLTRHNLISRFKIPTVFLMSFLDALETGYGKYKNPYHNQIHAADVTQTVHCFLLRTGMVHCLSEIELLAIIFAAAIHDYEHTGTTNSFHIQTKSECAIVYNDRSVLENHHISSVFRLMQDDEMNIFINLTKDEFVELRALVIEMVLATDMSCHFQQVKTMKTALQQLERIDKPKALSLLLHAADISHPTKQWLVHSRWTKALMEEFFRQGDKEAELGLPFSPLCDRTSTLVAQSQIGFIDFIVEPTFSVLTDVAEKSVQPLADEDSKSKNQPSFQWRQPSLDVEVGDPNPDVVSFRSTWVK
Description for PDE1B (10-487): (§2) Briefly, the recombinant plasmid was transformed into Escherichia coli competent cells BL21 (CodonPlus) and cultured in LB medium at 37°C until the optical density at 600 nm (A600) reached .6–.8. Induction of protein expression was achieved by adding .1 mM isopropyl β‐D‐thiogalactopyranoside (IPTG), followed by further incubation at 15°C for 24 h. The recombinant proteins were then purified using a Ni‐NTA column (Qiagen), a Q column (GE Healthcare), and a Superdex 100 column (GE Healthcare), and Superdex 100 column (GE Healthcare). The enzymatic activities of PDEs were measured by using ^3H‐cAMP or ^3H‐cGMP (GE Healthcare) as substrates. The assay buffer contains 20 mM Tris‐HCl (pH 7.5), 10 mM MgCl2 or 4.0 mM MnCl2, 1.0 mM dithiothreitol, and 10–30 nM ^3H‐cAMP or ^3H‐cGMP (20 000–30 000 cpm/assay). The reaction was conducted at room temperature for 15 min and then terminated by adding .2 M ZnSO4. The reaction products, 3H‐AMP or 3H‐GMP, were precipitated with .2 N Ba(OH)2, while unreacted 3H‐cAMP or 3H‐cGMP remained in the supernatant. The radioactivity of the supernatant was measured in 2.5 mL of Ultima Gold liquid scintillation cocktail (Fisher Scientific) using a PerkinElmer 2910 liquid scintillation counter. For the measurement of IC50, eight concentrations at least were used and IC50 values were calculated by the nonlinear regression.
Description for PDE3A (679-1087): as §2
Description for PDE5A1 (535-860): as §2
Description for PDE7A1 (130-482): as §2

`NC1(c2ccc(-c3nc4ccn5c(=O)[nH]nc5c4cc3-c3ccccc3)cc2)CCC1` [MK2206]: the “migration, transwell assay” value in the data set on MC38 cells [1] is on record as “significantly inhibit MC38 metastases”.
For `O=C(Nc1c(Cl)cncc1Cl)c1ccc(OC(F)F)c(OCC2CC2)c1` [Roflumilast, roflumilast], the “cell viability / growth (CCK8 assay)” value with MC38 cells [2] is “less toxicity”. In addition, the “migration, scratch wound closure” value with MC38 cells [3] is given as “significantly inhibited the migration”. Further, the results for the “migration, transwell assay” value in the data set on MC38 cells [1] (combined with siCCN2) and with MC38 cells [1] (combined with siHIF1A) were “could not inhibit tumour metastases” and “Same result”, respectively. Further, the “HIF-1α and CCN2 expression levels (western blot)” value in data set [4] (24 h) is listed as “inhibited”. For the same compound, the “protein level of CCN2 (immunofluorescence)” value in [4] (48 h) is reported as “decreased significantly”. Moreover, the “expression of eight cell adhesion pathway genes (CCN2, LAMB3, EGFL7, EPHA8, COL7A1, AMIGO2, COL6A3, CDH26)” value with MC38 cells [5] was “relatively low expression”. The “bioluminescence of mice in the liver” value in the data set on MC38 liver metastases is “significant decrease”. Further, in the data set with MC38 liver metastases (setting [9]), the “liver metastases (liver images and bioluminescence images)” value is “fewer metastatic lesions”. The “metastasis sites, liver total flux (and liver weight), quantitative statistics” value in the data set with MC38 liver metastases (setting [9]) was “could inhibit liver metastasis”. In addition, the “No. of animals with emesis/No. of test animals” value in data set [6] (1.0 mg/kg po) is reported as 3/3.
Regarding `COc1cccc(Nc2cc(-c3cc4cccc(OC)c4o3)ccc2C(N)=O)c1` [L4], at PDE4, at 1 µM the inhibition was 59.5% and the inhibition at 0.1 µM amounted to 28.9%.
With `O=S(=O)(NCCSSCCNS(=O)(=O)c1cc(Cl)ccc1Cl)c1cc(Cl)ccc1Cl` [KC7F2], the “mRNA and protein levels of CCN2” value in data set [4] was “significant decrease”.
As for `NC(=O)c1ccc(-c2cc3ccc(O)cc3o2)cc1Nc1cccc(F)c1` [L8], on PDE4, testing at 1 µM gave an inhibition of 61.6% and the inhibition at 0.1 µM was determined as 30.6%.
For the compound `Oc1ccc2cc(-c3ccc(OC(F)F)c(OC4CCCC4)c3)oc2c1` [L13], at PDE4, the half-inhibitory concentration (IC50) amounted to 145 ± 2.3 nM, at 1 µM the inhibition was 92.2% and the inhibition at 0.1 µM stood at 42.7%.
On PDE4, `FC(F)Oc1ccc(-c2cc3ccccc3o2)cc1OCC1CC1` [L10] registered an inhibition at 1 µM of 37.4%.
As to `Oc1ccc2cc(-c3ccc(OC(F)F)c(OCC4CC4)c3)oc2c1` [L11], the IC50 against PDE5A1 (535-860) is 3000 nM; against PDE7A1 (130-482), 2290 nM; in the data set with MC38 cells [2] (Mus musculus, MC-38), approximately 20000 nM; against PDE1B (10-487), more than 10000 nM; against PDE3A (679-1087) it was more than 10000 nM. Besides, the “cell viability / growth (CCK8 assay)” value in the data set with MC38 cells [2] is given as “significantly inhibit the growth”. The “levels of CCN2, p-AKT and p-ERK” value in data set [4] is given as “significantly repressed”. For the same compound, in the data set with MC38 liver metastases, the “bioluminescence of mice in the liver” value is “significant decrease”. Further, the “liver metastases (liver images and bioluminescence images)” value in the data set with MC38 liver metastases (setting [9]) is reported as “significantly inhibit tumour metastases”. Also, the “metastatic areas in the liver (H&E staining)” value in the data set with MC38 liver metastases (mice, after treatment) is reported as “significantly suppressed liver metastases”. Also, in data set [7], the “safety: body weight and H&E of heart, lung and kidney” value is given as “safety of compound L11 was observed; also recorded: could not induce weight loss or any major organ damage”. The “No. of animals with emesis/No. of test animals” value in data set [6] (10 mg/kg po) is reported as 0/3. Further, the emetic activity result in [6] (oral dose of 10 mg/kg) is “did not induce emetic effects”. Further, in data set [8] (30 mg/kg or 100 mg/kg intraperitoneal injection for 2 weeks), the “food intake, weight, haematology indicators and serum test indicators” value is listed as “no abnormal changes”. The “adverse effects on body weight or other signs of overt toxicity” value in [8] (daily doses of up to 100 mg/kg for 2 weeks) is on record as “did not cause any adverse effects”.
For the compound `NC(=O)c1ccc(-c2cc3ccc(O)cc3o2)cc1Nc1cc(F)cc(F)c1` [L9], on PDE4, the inhibition at 1 µM was 65.8% and the inhibition at 0.1 µM turned out to be 39.1%.
For the compound `COc1cccc(Nc2cc(-c3cc4ccc(O)cc4o3)ccc2C(N)=O)c1` [L2], at PDE4, it took 181 ± 13 nM to reach half-maximal inhibition (IC50), testing at 1 µM gave an inhibition of 68.5% and the inhibition at 0.1 µM was 48.6%.
With `COc1cc2c(cc1O)CC[C@@H]1[C@@H]2CC[C@]2(C)[C@@H](O)CC[C@@H]12` [2‐MEOE2], the “mRNA and protein levels of CCN2” value in data set [4] was “significant decrease”.
On to `COc1cccc(Nc2cc(-c3cc4ccc(Cl)cc4o3)ccc2C(N)=O)c1` [L5], for which, on PDE4, the inhibition at 1 µM was 36.9% and the inhibition at 0.1 µM stood at 15.9%.
For `C=C[C@@]1(C)CC(=O)[C@]2(O)[C@@]3(C)[C@@H](O)CCC(C)(C)[C@@H]3[C@H](O)[C@H](OC(C)=O)[C@@]2(C)O1` [FSK, forskolin], the “migration, transwell assay” value with MC38 cells [1] is on record as “quantitatively similar to those of roflumilast”. The “levels of CCN2, p-AKT and p-ERK” value in [4] was “significantly inhibited”.
For `COc1cccc(Nc2cc(-c3cc4cc(OC)ccc4o3)ccc2C(N)=O)c1` [L3], on PDE4, the inhibition at 1 µM was found to be 24.1% and the inhibition at 0.1 µM was 17%.
Turning to `COc1cccc(-c2cc(=O)c3ccccc3o2)c1N` [PD98095], the “migration, transwell assay” value with MC38 cells [1] is recorded as “significantly inhibit MC38 metastases”.
In the case of `COc1cccc(Nc2cc(-c3cc4ccccc4o3)ccc2C(N)=O)c1` [L1], at PDE4, the inhibition at 1 µM is 55.7% and the inhibition at 0.1 µM came to 41.9%.
For `Oc1cc(O)cc(-c2cc3ccc(O)cc3o2)c1` [Moracin M], the figures for the concentration for half-maximal inhibition (IC50) in the data set with PDE4B2 and in the data set with PDE4D2 were 4500 nM and 2900 nM, respectively.
On to `NC(=O)c1ccc(-c2cc3ccc(O)cc3o2)cc1Nc1cccc(Cl)c1` [L7], for which, at PDE4, the half-maximal inhibitory concentration (IC50) came to 197 ± 37.4 nM, 1 µM produced 77.5% inhibition and the inhibition at 0.1 µM was 44.1%.
As to `FC(F)Oc1ccc(-c2cc3ccccc3o2)cc1OC1CCCC1` [L12], at PDE4, the midpoint of inhibition, the IC50, lay at 910 nM; the inhibition at 1 µM was 73.3%; the inhibition at 0.1 µM stood at 13.2%.
For `COc1cccc(Nc2cc(-c3cc4cc(F)ccc4o3)ccc2C(N)=O)c1` [L6], at PDE4, 1 µM produced 55.5% inhibition and the inhibition at 0.1 µM is 30.3%.

As usually defined, the inhibition is the percentage by which the read-out fell short of the control. One may read the IC50 as the concentration that inhibits the measured activity by half.
